Test results: ChEMBL document CHEMBL1158946, “Sesquiterpenoids from Brachylaena hutchinsii” (1991)
Converted amounts (≈) assume the structure as drawn.

These compounds were tested on Streptococcus mutans (assay: Antimicrobial activity against Streptococcus mutans ATCC 25175 after 48 hrs by twofold serial broth dilution method). Conditions: ATCC 25175, 48 h.
Assay type: functional

Row | MIC [µg/mL] | SMILES
1 | 800 (≈ 3.44 mM) | CC(C)[C@H]1C(=O)CC2(C)C3C(C=O)=CC[C@@H]2[C@H]31
2 | > 800 | CC(C)[C@H]1C(=O)C[C@@]2(C)[C@@H]3C(CO)=CC[C@H]2[C@H]13
3 | 800 (≈ 3.44 mM) | CC(C)[C@@H]1C(=O)CC2(C)C3C(C=O)=CC[C@@H]2[C@H]31
4 | > 800 | CC(C)[C@@H]1C(=O)CC2(C)C3C(CO)=CC[C@@H]2[C@H]31
5 | 25 (≈ 0.113 mM) | CC(C)[C@@H]1CCC2(C)C3C(CO)=CC[C@@H]2[C@H]31 [YLANGENOL]

Each compound was assayed on Corynebacterium ammoniagenes (assay: Antimicrobial activity against Brevibacterium ammoniagenes ATCC 6872 after 48 hrs by twofold serial broth dilution method). Conditions: ATCC 6872, 48 h.
Assay type: functional

Row | MIC [µg/mL] | SMILES
6 | 800 (≈ 3.44 mM) | CC(C)[C@H]1C(=O)CC2(C)C3C(C=O)=CC[C@@H]2[C@H]31
7 | > 800 | CC(C)[C@H]1C(=O)C[C@@]2(C)[C@@H]3C(CO)=CC[C@H]2[C@H]13
8 | 800 (≈ 3.44 mM) | CC(C)[C@@H]1C(=O)CC2(C)C3C(C=O)=CC[C@@H]2[C@H]31
9 | > 800 | CC(C)[C@@H]1C(=O)CC2(C)C3C(CO)=CC[C@@H]2[C@H]31
10 | 25 (≈ 0.113 mM) | CC(C)[C@@H]1CCC2(C)C3C(CO)=CC[C@@H]2[C@H]31 [YLANGENOL]
